This passage reports IC50, Ki and Activity results from ChEMBL document CHEMBL2074497, “Involvement of rat organic anion transporter 3 (rOAT3) in cephaloridine-induced nephrotoxicity: in comparison with rOAT1” (Life Sci, 2002).

Holding throughout (assay type): functional, cell-based
For series [1], the target named is T1, Organic anion transporter 3 (Rattus norvegicus, UniProt Q9R1U7).
T1 sequence (Q9R1U7 whole entry): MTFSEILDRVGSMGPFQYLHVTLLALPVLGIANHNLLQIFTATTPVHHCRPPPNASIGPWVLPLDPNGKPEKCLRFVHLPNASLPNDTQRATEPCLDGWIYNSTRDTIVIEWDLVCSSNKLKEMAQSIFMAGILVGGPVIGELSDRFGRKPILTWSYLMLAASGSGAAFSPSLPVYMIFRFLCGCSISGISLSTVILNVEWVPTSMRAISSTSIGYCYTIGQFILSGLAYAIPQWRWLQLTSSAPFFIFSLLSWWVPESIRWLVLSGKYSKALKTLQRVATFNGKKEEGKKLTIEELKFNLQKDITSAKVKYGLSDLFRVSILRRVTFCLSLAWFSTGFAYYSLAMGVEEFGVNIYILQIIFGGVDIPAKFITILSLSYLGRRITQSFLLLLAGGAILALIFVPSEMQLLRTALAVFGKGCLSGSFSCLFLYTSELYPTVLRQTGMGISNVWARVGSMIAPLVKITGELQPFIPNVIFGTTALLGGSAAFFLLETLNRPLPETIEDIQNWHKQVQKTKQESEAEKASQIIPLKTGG
Kind of series: TP_TRANSPORTER: inhibition of Estrone sulfate uptake in OAT3-expressing S2 cells.

The target in series [2] is T2, Solute carrier family 22 member 6 (Rattus norvegicus, UniProt O35956).
T2 sequence (O35956 whole entry): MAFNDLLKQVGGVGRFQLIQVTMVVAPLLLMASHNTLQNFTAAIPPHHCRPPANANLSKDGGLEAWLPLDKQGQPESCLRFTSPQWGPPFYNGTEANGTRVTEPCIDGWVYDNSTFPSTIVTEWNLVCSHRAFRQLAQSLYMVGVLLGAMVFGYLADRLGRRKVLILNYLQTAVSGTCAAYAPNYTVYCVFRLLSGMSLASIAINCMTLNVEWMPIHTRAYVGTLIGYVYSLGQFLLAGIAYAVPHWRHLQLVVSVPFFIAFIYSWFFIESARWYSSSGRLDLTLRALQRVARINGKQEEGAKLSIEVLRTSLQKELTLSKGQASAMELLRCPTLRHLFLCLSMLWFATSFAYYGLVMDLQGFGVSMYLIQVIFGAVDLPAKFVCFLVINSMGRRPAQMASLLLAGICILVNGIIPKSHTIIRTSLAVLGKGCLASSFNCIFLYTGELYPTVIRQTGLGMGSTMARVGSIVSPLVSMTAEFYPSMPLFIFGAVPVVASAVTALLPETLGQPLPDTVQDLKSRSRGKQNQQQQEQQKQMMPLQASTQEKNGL
Kind of series: TP_TRANSPORTER: inhibition of PAH uptake in OAT1-expressing S2 cells.

Series [3] addresses T1, Organic anion transporter 3. The series can be described thus: TP_TRANSPORTER: uptake in OAT3-expressing S2 cells. The note with it: mouse.

Some results are limits rather than exact numbers.

`CC1=C(C(=O)O)N2C(=O)[C@@H](NC(=O)[C@H](N)c3ccc(O)cc3)[C@H]2SC1` [CEFADROXIL]: the IC50 in series [1] turned out to be 1780 µM.
In series [1], `Cn1nnnc1SCC1=C(C(=O)O)N2C(=O)[C@@H](NC(=O)[C@H](O)c3ccccc3)[C@H]2SC1` [CEFAMANDOLE] returned an IC50 of 90 µM.
In series [1], `Cc1nnc(SCC2=C(C(=O)O)N3C(=O)[C@@H](NC(=O)Cn4cnnn4)[C@H]3SC2)s1` [CEFAZOLIN] came in with a Ki of 780 µM.
In the case of `CCN1CCN(C(=O)N[C@@H](C(=O)N[C@@H]2C(=O)N3C(C(=O)O)=C(CSc4nnnn4C)CS[C@H]23)c2ccc(O)cc2)C(=O)C1=O` [CEFOPERAZONE], the affinity in series [1] corresponds to a Ki of 670 µM.
Molecule `CO/N=C(\C(=O)N[C@@H]1C(=O)N2C(C(=O)O)=C(COC(C)=O)CS[C@H]12)c1csc(N)n1` [CEFOTAXIME] showed an IC50 in series [1] of 800 µM.
In the case of `CO/N=C(\C(=O)N[C@@H]1C(=O)N2C(C(=O)O)=C(CSc3nc(=O)c(=O)[nH]n3C)CS[C@H]12)c1csc(N)n1` [CEFTRIAXONE], the IC50 in series [1] was more than 2000 µM.
As for `CC1=C(C(=O)O)N2C(=O)[C@@H](NC(=O)[C@H](N)c3ccccc3)[C@H]2SC1` [CEPHALEXIN ANHYDROUS], the results for the IC50 in series [2] and in series [1] were more than 2 mM and 630 µM, respectively.
In turn, `O=C(Cc1cccs1)N[C@@H]1C(=O)N2C(C(=O)[O-])=C(C[n+]3ccccc3)CS[C@H]12` [CEPHALORIDINE] registered a Ki in series [1] of 1140 µM. The Activity entry in series [3] was “substrate [+]”.
In turn, `CC(=O)OCC1=C(C(=O)O)N2C(=O)[C@@H](NC(=O)Cc3cccs3)[C@H]2SC1` [CEPHALOTHIN] showed a Ki in series [1] of 48 µM.

As usually defined, the IC50 is the concentration needed to halve the response being measured. Broadly, the Ki is the equilibrium dissociation constant of an inhibitor or competing ligand from its target. A low value points to tighter binding.
